Legend:
P. murina [1] = test: Mouse model of treatment of PCP, early response (C3H/HeN mice); assay type: in vivo, Pneumocystis murina
P. murina [2] = test: Mouse model of treatment of PCP, 28-42 days (Balb/c mice); assay type: in vivo, Pneumocystis murina
Method: Compound Preparation: SCY-078 (ibrexafungerp) was prepared in 0.5% methyl cellulose for oral administration. A correction factor of 1.37 was taken into account for salt and water content. […]
P. murina treatment study methods: Balb/c mice ordered from Charles River were infected with P. murina pneumonia through exposure to mice with a fulminant P. murina infection (seed mice). These mice were immune suppressed by the addition of dexamethasone at 4 mg/liter to the drinking water. Sulfuric acid at 1 ml/liter was also added to the drinking water for disinfection. The seed mice were rotated within the cages for 2 weeks and then removed. After the mice developed a moderate infection level (approximately 5 weeks), the mice were divided into a negative control group (control steroid), positive control group (TMP/SMX), and treatment groups. Drugs to be tested were administered by oral gavage (PO) on a mg/kg/BID basis for up to 6 weeks. At the end of the treatment, the mice were euthanized by CO2 and lungs were processed for analysis. Slides were made from the lung homogenates at different dilutions and stained with Diff-Quik™ to quantify the nuclei (all life cycle stages) and with cresyl echt violet to quantify the asci.
(§1) Calculations: Efficacy was based on the reduction of organism burden between the treatment groups and the negative control group as determined by microscopic evaluation. The nuclei and asci counts for each lung were log transformed and statistical analysis was determined by the analysis of variance (ANOVA); individual groups were compared by the Student-Newman-Keuls t test for multiple comparisons using GraphPad Prism. Statistical significance was accepted at a P value≤0.05.

[3] = human, in vivo
Text: The safety and tolerability of SCY-078 has been evaluated in more than 900 subjects in ˜20 clinical trials, at different doses and treatment durations, including administration for up to 1 year. […] Serious adverse events possibly related to SCY-078 have been very rare and interruption or discontinuation of therapy due to adverse reactions has been uncommon. Additionally, the safety profile of oral SCY-078 has been evaluated in standard long-term non-clinical toxicology studies including administration for 9 months in dogs and 6 months in rats, at doses and exposures higher than those anticipated in humans, in line with ICH guidelines. The results from these non-clinical studies support the long-term administration of oral SCY-078 in humans. SCY-078 is currently under evaluation in ongoing clinical trials for the treatment of fungal infections such as candidiasis and aspergillosis. SCY-078 has not been evaluated in clinical trials for the treatment or prevention of PCP.

P. murina [4] = test: Mouse model of prophylaxis for PCP (C3H/HeN mice, intranasal P. murina); assay type: in vivo, Pneumocystis murina; details: for Percent Survival at Day 7 / Percent Survival at Day 14 / Percent Survival at Day 21 / Percent Survival at Day 28 / Percent Survival at Day 35 / Percent Survival at Day 42: prophylaxis, mice
Method: Compound Preparation: SCY-078 (ibrexafungerp) was prepared in 0.5% methyl cellulose for oral administration. A correction factor of 1.37 for this lot was taken into account for salt and water content. Mice in the high dose group received 0.6 mg of SCY-078 BID, mid dose group received 0.3 mg of SCY-078 BID, and low dose group received 0.15 mg of SCY-078 BID, based on average mouse weights of 20 g.
P. murina prophylaxis study method: C3H/HeN mice (Charles River) were infected by intranasal inoculation of P. murina organisms at 2×10^6/50 μl from a liquid nitrogen repository. Prior to inoculation, the P. murina were pre-incubated overnight in RPMI 1640 medium supplemented with calf serum and antibiotics to eliminate any bacterial contamination. The immune systems of the mice were suppressed by the addition of dexamethasone at 4 mg/liter to acidified drinking water (hydrochloric acid at 1 ml/liter). Acidification is used to prevent secondary microbial infections. The mice were divided into a negative (non-treated) control group (control steroid—C/S), positive control group (trimethoprim/sulfamethoxazole—TMP/SMX) and treatment groups. SCY-078 was administered orally (po) BID at the specified doses. The mice were started on the prophylaxis regimen at the same time they were inoculated. Immune suppression and treatment continued for the entire 6-week study. At the conclusion of that time, the mice were euthanized by CO2 and lungs processed for analysis by homogenization. Slides were made from the lung homogenates at different dilutions and stained with Diff-Quik to quantify total nuclei (trophic forms) and with cresyl echt violet to quantify the asci (cyst forms).
as §1

[5] = patients with HIV; cited from earlier work
[6] = both dose levels (30 and 15 mg/kg BID po), Day 14 and Day 21
[7] = 15 and 10 mg/kg groups, days 28 and 35
[8] = all dose levels (15, 10, 5 mg/kg BID po), days 28, 35 and 42
[9] = 30 mg/kg BID po, 6 weeks prophylaxis
[10] = all 3 dose levels (30, 15, 7.5 mg/kg BID po), 6 weeks prophylaxis, lung

Molecule: CC(C)[C@@H](C)[C@@]1(C)CC[C@]2(C)[C@H]3CC[C@@H]4[C@@]5(COC[C@@]4(C)[C@@H](OC[C@](C)(N)C(C)(C)C)[C@H](n4ncnc4-c4ccncc4)C5)C3=CC[C@@]2(C)[C@@H]1C(=O)O [SCY-078, (1S,4aR,6aS,7R,8R,10aR,10bR,12aR,14R,15R)-15-[[(2R)-2-amino-2,3,3-trimethylbutyl]oxy]-8-[(1R)-1,2-dimethylpropyl]-14-[5-(4-pyridinyl)-1H-1,2,4-triazol-1-yl]-1,6,6a, 7,8,9,10,10a, 10b, 11,12,12a-dodecahydro-1,6a, 8,10a-tetramethyl-4H-1,4a-propano-2H-phenanthro [1,2-c]pyran-7-carboxylic acid]
- magnitude of the effect against nuclei burden compared with TMP/SMX (P. murina [1]; both dose levels): lower than observed with the TMP/SMX control
- asci burdens versus vehicle treated negative control group (C/S) (P. murina [1]; [6]): significantly reduced
- nuclei burdens versus vehicle treated negative control group (C/S) (P. murina [1]; [6]): significantly reduced
- extent of asci burden reduction compared with TMP/SMX (P. murina [1]; both dose levels, Day 14 and Day 21): to a similar extent
- reduction of asci burden compared with TMP/SMX (P. murina [1]; both dose levels, day 7): statistically significantly better
- asci observed in lung (P. murina [2]; [7]): No asci were observed
- reduction of asci burden compared with positive control (TMP/SMX) (P. murina [2]; [7]): worked equally as well
- asci observed in lung (P. murina [2]; all 3 dose groups, day 42): some asci were observed
- asci burdens versus vehicle treated negative control group (C/S) (P. murina [2]; [8]): significantly reduced
- nuclei burdens versus vehicle treated negative control group (C/S) (P. murina [2]; [8]): significantly reduced
- reduction of asci burden compared with positive control (TMP/SMX) (P. murina [2]; all dose levels, day 42): worked equally well
- interruption or discontinuation of therapy due to adverse reactions [3]: uncommon
- most common adverse events [3]: mild to moderate, transient gastrointestinal disorders
- serious adverse events possibly related to SCY-078 [3]: very rare
- Percent Survival at Day 7 (P. murina [4]; 7.5 mg/kg BID po): 100%
- Percent Survival at Day 14 (P. murina [4]; 7.5 mg/kg BID po): 90%
- Percent Survival at Day 21 (P. murina [4]; 7.5 mg/kg BID po): 90%
- Percent Survival at Day 28 (P. murina [4]; 7.5 mg/kg BID po): 90%
- Percent Survival at Day 35 (P. murina [4]; 7.5 mg/kg BID po): 90%
- Percent Survival at Day 42 (P. murina [4]; 7.5 mg/kg BID po): 90%
- Percent Survival at Day 7 (P. murina [4]; 15 mg/kg BID po): 100%
- Percent Survival at Day 14 (P. murina [4]; 15 mg/kg BID po): 90%
- Percent Survival at Day 21 (P. murina [4]; 15 mg/kg BID po): 90%
- Percent Survival at Day 28 (P. murina [4]; 15 mg/kg BID po): 80%
- Percent Survival at Day 35 (P. murina [4]; 15 mg/kg BID po): 80%
- Percent Survival at Day 42 (P. murina [4]; 15 mg/kg BID po): 80%
- reduction of asci burden compared with TMP/SMX (P. murina [4]; [9]): performed equally as well
- survival versus vehicle treated negative control group (P. murina [4]; [9]): significant improvement in survival
- Percent Survival at Day 7 (P. murina [4]; 30 mg/kg BID po): 100%
- Percent Survival at Day 14 (P. murina [4]; 30 mg/kg BID po): 100%
- Percent Survival at Day 21 (P. murina [4]; 30 mg/kg BID po): 100%
- Percent Survival at Day 28 (P. murina [4]; 30 mg/kg BID po): 100%
- Percent Survival at Day 35 (P. murina [4]; 30 mg/kg BID po): 100%
- Percent Survival at Day 42 (P. murina [4]; 30 mg/kg BID po, * statistically significant difference vs C/S group): 100* Percent
- asci burden versus vehicle treated negative control group (C/S) (P. murina [4]; [10]): significantly reduced
- nuclei burden versus vehicle treated negative control group (C/S) (P. murina [4]; [10]): significantly reduced

Molecule: Trimethoprim-sulfamethoxazole [TMP/SMX, reference compound]
- hepatitis [5]: 20 % of patients
- thrombocytopenia [5]: 15 % of patients
- Percent Survival at Day 7 (P. murina [4]; 50/250 mg/kg 3x/wk): 100%
- Percent Survival at Day 14 (P. murina [4]; 50/250 mg/kg 3x/wk): 90%
- Percent Survival at Day 21 (P. murina [4]; 50/250 mg/kg 3x/wk): 90%
- Percent Survival at Day 28 (P. murina [4]; 50/250 mg/kg 3x/wk): 90%
- Percent Survival at Day 35 (P. murina [4]; 50/250 mg/kg 3x/wk): 90%
- Percent Survival at Day 42 (P. murina [4]; 50/250 mg/kg 3x/wk): 90%

Source: patent US12594266B2, “Triterpenoid antifungals for the treatment or prevention of Pneumocystis spp. pneumonia” (priority 2019, dated 2026)
